The text below walks through data of US5179091A, “Chalcones” (Adir et Compagnie, priority 1990, dated 1993).

One test has as its system native LDL. Put plainly: Level of LDL oxidation by Cu++, oxidation products assayed by FPLC. The conditions noted are these: relative to probucol (i=1). The test is classed as biochemical. On the procedure:
Under these conditions, free radicals are generated by Cu++ in a medium containing native LDL in the presence or absence of the test compounds. The reaction is stopped by adding 2,6-di-tert-butyl-4-methylphenol and EDTA to the reaction medium and the oxidation products are assayed by FPLC.
D being the height of the peak of fraction 27/28 of the chromatogram; the sum of the oxidized fractions 27/28 and 31/32 is equal to 100.

The next test has as its target T1, lipoxygenase (Homo sapiens, UniProt P09917).
T1 construct: endogenous in cells
T1 sequence (P09917 1-674): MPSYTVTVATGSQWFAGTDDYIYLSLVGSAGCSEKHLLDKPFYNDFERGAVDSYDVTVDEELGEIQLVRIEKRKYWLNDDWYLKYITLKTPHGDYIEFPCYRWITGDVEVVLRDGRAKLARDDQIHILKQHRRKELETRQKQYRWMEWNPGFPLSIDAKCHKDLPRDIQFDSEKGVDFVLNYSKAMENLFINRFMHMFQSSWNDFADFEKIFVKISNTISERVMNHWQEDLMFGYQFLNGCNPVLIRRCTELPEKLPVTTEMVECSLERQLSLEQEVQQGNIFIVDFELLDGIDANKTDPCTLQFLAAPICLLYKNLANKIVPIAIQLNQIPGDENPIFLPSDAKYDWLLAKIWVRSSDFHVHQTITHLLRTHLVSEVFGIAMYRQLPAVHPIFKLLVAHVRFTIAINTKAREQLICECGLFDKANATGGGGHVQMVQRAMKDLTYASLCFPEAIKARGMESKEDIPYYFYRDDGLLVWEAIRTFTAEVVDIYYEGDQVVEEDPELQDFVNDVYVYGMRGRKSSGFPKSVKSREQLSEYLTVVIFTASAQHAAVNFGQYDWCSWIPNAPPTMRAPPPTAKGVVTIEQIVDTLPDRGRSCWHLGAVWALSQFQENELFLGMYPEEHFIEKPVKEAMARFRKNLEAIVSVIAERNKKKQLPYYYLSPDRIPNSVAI
Nature of the test: Inhibition of lipoxygenase activity, LTB4 measured by radioimmunoassay. The format is cell-based. The conditions noted are these: concentration of 10^-5 M, washed human polynuclear cells activated by calcium; read-out: inhibition of lipoxygenase action (LTB4 produced). On the procedure: The lipoxygenase activity is measured using washed human polynuclear cells, in the presence and absence of the claimed compounds after activation by calcium (A 23/87). The leukotriene B4 (LTB4) produced is measured by radioimmunoassay (Gresele, P. et al. Biochem. Biophys. Res. Comm. 1986, 137, 334-342).

In test [1] the test system is rat brain homogenates. Nature of the test: Inhibition of lipid peroxidation induced by the Fe++/ascorbate system. The format is biochemical. The conditions noted are these: concentration of 10^-5 M, Fe++/ascorbate (10 μM/250 μM). On the procedure:
A study of the capacity of the compounds of the invention to trap free OH. radicals was studied on rat brain homogenates on the other hand with respect to peroxidation induced by the Fe++/ascorbate (10 μM/250 μM) system. The rat brain homogenates are placed in the presence or absence of the test compounds for 60 minutes at 37° C. The intensity of lipid peroxidation in the presence and in the absence of the compounds of the invention is determined by the substances reacting with thiobarbituric acid, expressed in mmol of malondialdehyde, by a method derived from that of […], Biochem. Med. 1976, 15, 212-216). The methodology is identical, with the exception of the addition to the homogenate of the Fe++/ascorbate radical-inducing system.

Test [2] can be described thus: Inhibition of formation of conjugated dienes formed by free-radical activity. The format is biochemical. The conditions noted are these: 10^-5 M concentration, linoleic acid emulsion, Fe2+/Fe3+ mixture. The source says:
This methodology consists in generating free OH- radicals in an emulsion of linoleic acid, by means of a system consisting of an Fe^2+ /Fe^3+ mixture.

The subject of test [3] is rat brain homogenates. Put plainly: Inhibition of spontaneous lipid peroxidation (thiobarbituric acid reacting substances). The test is classed as biochemical. The conditions noted are these: concentration of 10^-5 M, 60 minutes at 37° C. On the procedure: A study of the capacity of the compounds of the invention to trap free OH. radicals was studied on rat brain homogenates on the one hand with respect to the spontaneous peroxidation of lipids, The rat brain homogenates are placed in the presence or absence of the test compounds for 60 minutes at 37° C. The intensity of lipid peroxidation in the presence and in the absence of the compounds of the invention is determined by the substances reacting with thiobarbituric acid, expressed in mmol of malondialdehyde, by a method derived from that of […], Biochem. Med. 1976, 15, 212-216).

The subject of a further test is Human red cells. Put plainly: AAPH-induced hemolysis. The format is cell-based. The conditions noted are these: Erythrocyte, 0.5 h, concentration of 10^-5 M, 30 minutes at 37° C.

Turning to `CC1C(=Cc2cc(C(C)(C)C)c(O)c(C(C)(C)C)c2)C(=O)c2cc3oc(=O)n(C)c3cc21` (stereo not drawn) [Example 27, 2,3-dihydro-3,5-dimethyl-6-(3',5'-di-tert-butyl-4'-hydroxybenzylidene)cyclopenta[f]benzoxazone-2,7-dione], the “LDL oxidation: oxidized fraction 27/28 of the chromatogram” value with native LDL was “oxidized fraction 27/28 disappears”.
Regarding `Cn1c(=O)oc2ccc(C(=O)C=Cc3cc(C(C)(C)C)c(O)c(C(C)(C)C)c3)cc21` [Example 1, 5-(3',5'-di-tert-butyl-4'-hydroxycinnamo-yl)-3-methylbenzoxazolinone], on lipoxygenase, the inhibition at 10 µM is about 80%.
Same read-out and setting: in the case of `Cn1c(=O)oc2cc(C(=O)C=Cc3cc(C(C)(C)C)c(O)c(C(C)(C)C)c3)ccc21` [Example 5, 6-(3',5'-di-tert-butyl-4'-hydroxycinnamoyl)-3-methylbenzoxazolinone] it was about 60%.
As to `Cn1c(=O)sc2cc(C(=O)C=Cc3cc(C(C)(C)C)c(O)c(C(C)(C)C)c3)ccc21` [Example 4, 6-(3',5'-di-tert-butyl-4'-hydroxycinnamoyl)-3-methylbenzothiazolinone], the “inhibition of induced peroxidation” value in the test with rat brain homogenates [1] is reported as about 30%.
`CC1C(=Cc2cc(C(C)(C)C)c(O)c(C(C)(C)C)c2)C(=O)c2cc3c(cc21)oc(=O)n3C` (stereo not drawn) [Example 29, 2,3-dihydro-3,7-dimethyl-6-(3',5'-di-tert-butyl-4'-hydroxybenzylidene)cyclopenta[f]benzoxazole-2,5-dione]: in the test with native LDL, the “LDL oxidation: oxidized fraction 27/28 of the chromatogram” value is “oxidized fraction 27/28 disappears”.
With `CC(C)(C)c1cc(C=CC(=O)c2ccc3[nH]c(=O)oc3c2)cc(C(C)(C)C)c1O` [Example 6, 6-(3',540-di-tert-butyl-4'-hydroxycinnamoyl)benzoxazolinone], in test [2], the “inhibition of diene formation” value is “approximately 75%”.
As to `CC(C)(Sc1cc(C(C)(C)C)c(O)c(C(C)(C)C)c1)Sc1cc(C(C)(C)C)c(O)c(C(C)(C)C)c1` [probucol, reference compound], the “inhibition of spontaneous peroxidation” value in the test with rat brain homogenates [3] was determined as 37%. Moreover, the “inhibition of induced peroxidation” value in the test on rat brain homogenates [1] turned out to be 27%. Moreover, the inhibition at 10 µM in the test with Human red cells is 48%; at lipoxygenase, 44%.
Regarding `Cn1c(=O)oc2cc3c(cc21)CC(=Cc1cc(C(C)(C)C)c(O)c(C(C)(C)C)c1)C3=O` [Example 40, 2,3-dihydro-3-methyl-2,7-dioxo-6-(3',5'-di-tert-butyl-4'-hydroxybenzylidene)cyclopenta[f]benzoxazole-2,7-dione], the “inhibition of spontaneous peroxidation” value with rat brain homogenates [3] is “approximately 50%”.
Take vitamin E [reference compound]: the “inhibition of spontaneous peroxidation” value in the test with rat brain homogenates [3] came to 18%. Further, the “inhibition of induced peroxidation” value with rat brain homogenates [1] amounted to 6%.
Consider `CC1CC(=Cc2cc(C(C)(C)C)c(O)c(C(C)(C)C)c2)C(=O)c2cc3c(cc21)oc(=O)n3C` (stereo not drawn) [Example 28, 2,3-dihydro-3,8-dimethyl-6-(3',5'-di-tert-butyl-4'-hydroxybenzylidene)cyclohexa[f]benzoxazone-2,5-dione], for which, in the test with native LDL, the “LDL oxidation: oxidized fraction 27/28 of the chromatogram” value is on record as “oxidized fraction 27/28 disappears”.
Turning to `CC1C(=Cc2cc(C(C)(C)C)c(O)c(C(C)(C)C)c2)C(=O)c2cc3oc(=O)[nH]c3cc21` (stereo not drawn) [Example 33, 2,3-dihydro-5-methyl-6-(3',5'-di-tert-butyl-4'-hydroxybenzylidene)cyclopenta[f]benzoxa-zone-2,6-dione], the “inhibition of spontaneous peroxidation” value with rat brain homogenates [3] is recorded as “approximately 50%”. Besides, the “inhibition of induced peroxidation” value in the test on rat brain homogenates [1] was about 50%. The “LDL oxidation: oxidized fraction 27/28 of the chromatogram” value in the test on native LDL is listed as “oxidized fraction 27/28 disappears”.
Consider `Cn1c(=O)oc2cc3c(cc21)C(c1ccccc1)C(=Cc1cc(C(C)(C)C)c(O)c(C(C)(C)C)c1)C3=O` (stereo not drawn) [Example 36, 2,3-dihydro-3-methyl-5-phenyl-6-(3',5'-di-tert-butyl-4'-hydroxybenzylidene)cyclopenta[f]benzoxazole-2,7-dione], for which the “inhibition of spontaneous peroxidation” value in the test with rat brain homogenates [3] is “approximately 50%”. Besides, the “inhibition of induced peroxidation” value in the test with rat brain homogenates [1] is on record as about 50%. The “inhibition of diene formation” value in test [2] is “approximately 50%”. The “LDL oxidation: oxidized fraction 27/28 of the chromatogram” value in the test with native LDL is “oxidized fraction 27/28 disappears”. Also, the inhibition at 10 µM at lipoxygenase was about 60%.
For `CC(C)(C)c1cc(C=CC(=O)c2ccc3c(c2)OCC(=O)N3)cc(C(C)(C)C)c1O` [Example 7, 7-(3',54- -di-tert-butyl-4'-hydroxycinnamoyl)-1,4-benzoxazin-3-one], the “inhibition of diene formation” value in test [2] is reported as “approximately 75%”.
As for `CC(C)(C)c1cc(C=C2C(=O)c3cc4oc(=O)[nH]c4cc3C2c2ccccc2)cc(C(C)(C)C)c1O` (stereo not drawn) [Example 35, 2,3-dihydro-5-phenyl-6-(3',5'-di-tert-butyl-4'-hydroxybenzylidene)cyclopenta[f]benzoxazole-2,7-dione], in the test with rat brain homogenates [3], the “inhibition of spontaneous peroxidation” value is “approximately 50%”. The “inhibition of induced peroxidation” value in the test with rat brain homogenates [1] is about 50%. Moreover, in the test with native LDL, the “LDL oxidation: oxidized fraction 27/28 of the chromatogram” value was “oxidized fraction 27/28 disappears”. At lipoxygenase, the inhibition at 10 µM was about 60%.
